Assays:
B. subtilis 168 [1] = assay: fitness (endpoint OD595 vs no drug) (fraction); higher = more growth
Method in brief: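 Bacterial fitness was scored as optical density at the stationary-phase transition relative to the robust mean of no-drug control wells. Scores are capped at 1. The growth data were OD595 readings every 30 min for 14 h at 37 °C, background-subtracted against the first reading, from 384-well plates inoculated at OD595 0.01 in TSB, LB Lennox or CY.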

B. subtilis 168 [2] = assay: Bliss interaction score (quartile over a dose matrix) (fitness difference); higher = more antagonism (negative = synergy)
Method in brief: (§1)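 The Bliss score is observed fitness minus expected fitness, where the expected value is the product of single-drug fitness values inferred from combination data. Fitness is OD595 at entry into stationary phase normalised to the plate's robust no-drug mean and capped at 1. Scores are reported as quartiles spanning technical, biological and donor/recipient replicates.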

S. aureus DSM 20231 = assay: as above
Method in brief: as §1

S. aureus Newman = assay: as above
Method in brief: as §1

S. pneumoniae D39V = assay: as above
Method in brief: as §1
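Wherever Bliss interaction score (quartile over a dose matrix) is given: first quartile when negative (synergy) and third quartile when positive (antagonism).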
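Wherever fitness (endpoint OD595 vs no drug) is given: OD595 on entry to stationary phase over no-drug wells; at most 1.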

O=C(O)c1cn(C2CC2)c2cc(N3CCNCC3)c(F)cc2c1=O [Ciprofloxacin] + COc1cc(Cc2cnc(N)nc2N)cc(OC)c1OC [Trimethoprim]
fitness, B. subtilis 168 [1], one replicate
Details	partner 0.1 µg/mL	partner 0.2 µg/mL	partner 0.4 µg/mL	partner 1 µg/mL	partner 2 µg/mL
first compound 0.0098 µg/mL	0.863	0.721	0.516	0.342	0.321
first compound 0.0195 µg/mL	0.835	0.552	0.457	0.333	0.349
first compound 0.039 µg/mL	0.412	0.355	0.334	0.276	0.246

fitness, B. subtilis 168 [1]
Details	first compound 0.0098 µg/mL	first compound 0.0195 µg/mL	first compound 0.039 µg/mL
partner 0.125 µg/mL	0.647	0.546	0.424
partner 0.25 µg/mL	0.547	0.428	0.355
partner 0.5 µg/mL	0.479	0.444	0.387

Details	Bliss interaction score
B. subtilis 168 [2]	0.135
S. aureus DSM 20231	-0.106
S. aureus Newman	-0.165
S. pneumoniae D39V	0.0557

CO/N=C(\C(=O)N[C@@H]1C(=O)N2C(C(=O)O)=C(COC(N)=O)CS[C@H]12)c1ccco1 [Cefuroxime] + COc1cc(Cc2cnc(N)nc2N)cc(OC)c1OC [Trimethoprim]
fitness, B. subtilis 168 [1], one replicate
Details	partner 0.1 µg/mL	partner 0.125 µg/mL	partner 0.2 µg/mL	partner 0.25 µg/mL	partner 0.4 µg/mL	partner 1 µg/mL	partner 2 µg/mL
first compound 0.04875 µg/mL	–	0.392	–	0.382	–	0.37	0.375
first compound 0.0975 µg/mL	–	0.443	–	0.46	–	0.315	0.247
first compound 0.195 µg/mL	0.325	–	0.259	–	0.115	0.279	0.147
first compound 0.39 µg/mL	0.162	0.227	0.262	–	0.207	–	–
first compound 0.78 µg/mL	0.237	0.155	0.221	–	0.17	–	–

fitness, B. subtilis 168 [1]
Details	first compound 0.04875 µg/mL	first compound 0.0975 µg/mL	first compound 0.195 µg/mL	first compound 0.39 µg/mL	first compound 0.78 µg/mL	first compound 1.562 µg/mL	first compound 3.125 µg/mL	first compound 6.25 µg/mL
partner 0.125 µg/mL	–	–	0.289	–	–	–	–	–
partner 0.25 µg/mL	–	–	0.315	0.187	0.178	–	–	–
partner 0.5 µg/mL	0.397	0.407	0.29	0.19	0.168	0.286	0.26	0.255

Details	Bliss interaction score
B. subtilis 168 [2]	0.098
S. aureus DSM 20231	-0.188
S. aureus Newman	-0.438
S. pneumoniae D39V	-0.0241

Cc1ncc([N+](=O)[O-])n1CCO [Metronidazole] + CO[C@@H]1[C@@H](OC(N)=O)[C@@H](O)[C@H](Oc2ccc3c(O)c(NC(=O)c4ccc(O)c(CC=C(C)C)c4)c(=O)oc3c2C)OC1(C)C [Novobiocin]
fitness, B. subtilis 168 [1]
Details	first compound 0.625 µg/mL	first compound 1.25 µg/mL	first compound 2.5 µg/mL
partner 0.0125 µg/mL	0.969	0.954	0.968
partner 0.025 µg/mL	0.998	0.977	0.986
partner 0.05 µg/mL	0.969	0.977	0.98

fitness, B. subtilis 168 [1], one replicate
Details	first compound 0.625 µg/mL	first compound 1.25 µg/mL	first compound 2.5 µg/mL
partner 0.125 µg/mL	≥ 1	0.958	0.915
partner 0.25 µg/mL	0.923	0.916	0.908
partner 0.5 µg/mL	0.584	0.633	0.552

Details	Bliss interaction score
B. subtilis 168 [2]	0.072
S. aureus DSM 20231	0.0355
S. aureus Newman	0.05
S. pneumoniae D39V	0.126

C[C@@H]1O[C@@H]1P(=O)(O)O [Fosfomycin] + CO[C@@H]1[C@@H](OC(N)=O)[C@@H](O)[C@H](Oc2ccc3c(O)c(NC(=O)c4ccc(O)c(CC=C(C)C)c4)c(=O)oc3c2C)OC1(C)C [Novobiocin]
fitness, B. subtilis 168 [1]
Details	first compound 1.562 µg/mL	first compound 3.124 µg/mL	first compound 6.248 µg/mL
partner 0.0125 µg/mL	0.712	0.609	0.44
partner 0.025 µg/mL	0.658	0.586	0.408
partner 0.05 µg/mL	0.792	0.69	0.47

fitness, B. subtilis 168 [1], one replicate
Details	partner 0.1 µg/mL	partner 0.125 µg/mL	partner 0.2 µg/mL	partner 0.25 µg/mL	partner 0.5 µg/mL
first compound 1.562 µg/mL	0.746	0.785	0.793	0.7	0.12
first compound 3.124 µg/mL	0.698	0.782	0.691	0.637	0.0455
first compound 6.248 µg/mL	0.531	0.551	0.507	0.36	0.0252

Details	Bliss interaction score
B. subtilis 168 [2]	-0.0536
S. aureus DSM 20231	0.1
S. aureus Newman	0.0635
S. pneumoniae D39V	-0.102

From the supplement of paper PMC10627819
